Structures are written as SMILES.

In experiment [1] the test system is Escherichia coli SKF 12140. The experiment is described as follows: In vitro MIC, two-fold dilution in microtiter. The format is cell-based. As to conditions: 18-24 h at 37° C., inoculum about 10^4 CFU/ml. As to the method:
(§1) Broth cultures are diluted enough so that the final inecuium is about 10^4 colony forming units/ml (CFU/ml).

The test system of experiment [2] is Proteus vulgaris X19H ATCC 881. The experiment is described as follows: In vitro MIC, two-fold dilution in microtiter. The format is cell-based. As to conditions: 18-24 h at 37° C., inoculum about 10^4 CFU/ml. The method, then:
as §1

The test system of experiment [3] is Pseudomonas aeruginosa ATCC 10145. The experiment is described as follows: In vitro MIC, two-fold dilution in microtiter. The format is cell-based. As to conditions: 18-24 h at 37° C., inoculum about 10^4 CFU/ml. The method, then: as §1
For experiment [4], the system named is Staphylococcus aureus TOUR. The experiment is described as follows: In vitro MIC, two-fold dilution in microtiter. Format: cell-based. As to conditions: 18-24 h at 37° C., inoculum about 10^4 CFU/ml. As to the method:
as §1

Experiment [5] relates to Staphylococcus epidermidis ATCC 12228. Kind of experiment: In vitro MIC, two-fold dilution in microtiter. Format: cell-based. To be noted: 18-24 h at 37° C., inoculum about 10^4 CFU/ml. The method, then: as §1
In experiment [6] the test system is Staphylococcus haemolyticus L 602. Kind of experiment: In vitro MIC, two-fold dilution in microtiter. As to conditions: 18-24 h at 37° C., inoculum about 10^4 CFU/ml. Format: cell-based. The method, then:
as §1

In experiment [7] the test system is Streptococcus faecalis ATCC 7080. The experiment is described as follows: In vitro MIC, two-fold dilution in microtiter. Format: cell-based. To be noted: 18-24 h at 37° C., inoculum about 10^4 CFU/ml. The method, then:
as §1

Experiment [8] relates to Streptococcus pneumoniae UC 41. Kind of experiment: In vitro MIC, two-fold dilution in microtiter. The format is cell-based. To be noted: 18-24 h at 37° C., inoculum about 10^4 CFU/ml. The method, then: as §1
The test system of experiment [9] is Streptococcus pyogenes C 203. Kind of experiment: In vitro MIC, two-fold dilution in microtiter. The format is cell-based. As to conditions: 18-24 h at 37° C., inoculum about 10^4 CFU/ml. As to the method:
as §1

The next experiment deals with E. coli. The experiment is described as follows: Mice septicemically infected with E. coli. Format: in vivo. To be noted: E. coli septicemia.

`NCCCN(CCCN)CCCNC(=O)C1NC(=O)C2NC(=O)C(NC(=O)C3NC(=O)C4NC(=O)C(Cc5ccc(c(Cl)c5)Oc5cc3cc(c5O)Oc3ccc(cc3Cl)C2O)NC(=O)C(N)c2ccc(O)c(c2)Oc2cc(O)cc4c2)c2ccc(O)c(c2)-c2c(O)cc(O)cc21` (centres unmarked) [Compound 50]: the “MIC Escherichia coli SKF 12140” value in experiment [1] is recorded as 1 microgram/ml. Besides, the “MIC Proteus vulgaris X19H ATCC 881” value in experiment [2] is 128 microgram/ml. The “MIC Pseudomonas aeruginosa ATCC 10145” value in [3] is recorded as 8 microgram/ml. The “MIC Staphylococcus aureus TOUR” value in experiment [4] was 0.12 microgram/ml. In addition, the “MIC Staphylococcus epidermidis ATCC 12228” value in experiment [5] was determined as 0.008 microgram/ml. Moreover, the “MIC Staphylococcus haemolyticus L 602” value in [6] was 0.06 microgram/ml. Further, the “MIC Streptococcus faecalis ATCC 7080” value in experiment [7] is given as 0.12 microgram/ml. In addition, the “MIC Streptococcus pneumoniae UC 41” value in experiment [8] was found to be 0.12 microgram/ml. The “MIC Streptococcus pyogenes C 203” value in [9] came to 0.06 microgram/ml. For the same molecule, the survivors/treated in the experiment on E. coli (i.v. administration, 40 mg/kg) is on record as 7/8. Further, the ED50 s.c. with E. coli (s.c. administration) was ≤ 38 mg/kg.

(Values after patent US5500410A, “Substituted alkylamide derivatives of teicoplanin” (Gruppo Lepetit S.p.A., priority 1989, dated 1996).)
